ChEMBL document CHEMBL1155788, “Bis(sulfonamide) isosters of mycophenolic adenine dinucleotide analogues: inhibition of inosine monophosphate dehydrogenase” (Bioorg Med Chem, 2008)

Columns and labels:
[1] = biological target: Inosine-5'-monophosphate dehydrogenase 1 (Homo sapiens, UniProt P20839); experiment: Inhibition of human IMP dehydrogenase 1
[2] = biological target: Inosine-5'-monophosphate dehydrogenase 2 (Homo sapiens, UniProt P12268); experiment: Inhibition of human IMP dehydrogenase 2
[3] = Inhibition of IMP dehydrogenase

Inosine-5'-monophosphate dehydrogenase 1, sequence (P20839 whole entry): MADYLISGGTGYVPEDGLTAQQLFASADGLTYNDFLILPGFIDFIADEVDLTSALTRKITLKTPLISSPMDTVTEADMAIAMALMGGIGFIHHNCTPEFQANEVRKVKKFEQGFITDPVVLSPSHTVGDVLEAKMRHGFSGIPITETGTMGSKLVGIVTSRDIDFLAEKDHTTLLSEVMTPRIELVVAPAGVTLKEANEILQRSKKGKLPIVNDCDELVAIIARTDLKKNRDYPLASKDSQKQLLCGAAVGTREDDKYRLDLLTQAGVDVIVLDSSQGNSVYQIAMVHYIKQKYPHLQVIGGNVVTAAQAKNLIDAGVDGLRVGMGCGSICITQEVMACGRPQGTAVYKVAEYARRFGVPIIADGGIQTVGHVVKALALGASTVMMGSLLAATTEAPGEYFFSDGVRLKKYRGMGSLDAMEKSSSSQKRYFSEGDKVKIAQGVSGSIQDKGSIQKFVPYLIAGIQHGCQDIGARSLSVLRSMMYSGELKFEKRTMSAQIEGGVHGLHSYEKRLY

Row | Ki [1] [nM] | Ki [2] [nM] | Ki [3] [nM] | IC50 [1] [nM] | SMILES
1 | 520 | 180 |  |  | C#Cc1nc(N)c2ncn([C@@H]3O[C@H](CNS(=O)(=O)CS(=O)(=O)NCCc4c(O)c5c(c(C)c4OC)COC5=O)[C@@H](O)[C@H]3O)c2n1
2 | 70 |  |  |  | COc1c(C)c2c(c(O)c1CCOP(=O)(O)CP(=O)(O)OC[C@H]1O[C@@H](n3cnc4c(N)nc(-c5ccccc5)nc43)[C@H](O)[C@@H]1O)C(=O)OC2
3 | 820 | 440 |  |  | CCc1nc(N)c2ncn([C@@H]3O[C@H](CNS(=O)(=O)CS(=O)(=O)NCCc4c(O)c5c(c(C)c4OC)COC5=O)[C@@H](O)[C@H]3O)c2n1
4 |  |  | 40 |  | NC(=O)c1c[se]c([C@@H]2O[C@H](COP(=O)(O)OP(=O)(O)OC[C@H]3O[C@@H](n4cnc5c(N)ncnc54)[C@H](O)[C@@H]3O)[C@@H](O)[C@H]2O)n1
5 | > 100000 | > 100000 |  |  | Nc1ncnc2c1ncn2[C@@H]1O[C@H](CNS(=O)(=O)CS(N)(=O)=O)[C@@H](O)[C@H]1O
6 | 15400 | 3000 |  |  | COc1c(C)c2c(c(O)c1CCO)C(=O)OC2
7 |  |  |  | 23600 | NC(=O)c1csc([C@@H]2O[C@H](CNS(=O)(=O)CS(=O)(=O)NC[C@H]3O[C@@H](n4cnc5c(N)ncnc54)[C@H](O)[C@@H]3O)[C@@H](O)[C@H]2O)n1
8 | 660 | 310 |  |  | COc1c(C)c2c(c(O)c1CCNS(=O)(=O)CS(=O)(=O)NC[C@H]1O[C@@H](n3cnc4c(N)nc(-c5ccccc5)nc43)[C@H](O)[C@@H]1O)C(=O)OC2
9 | > 100000 | > 100000 |  |  | Nc1ncnc2c1ncn2[C@@H]1O[C@H](CO)[C@@H](O)[C@H]1O [ADENOSINE]
10 | 18200 | 4000 |  |  | COc1c(C)c2c(c(O)c1CCNS(=O)(=O)CS(N)(=O)=O)C(=O)OC2 [MYCOPHENOLIC BIS(SULFONAMIDE)]
11 |  |  | 100 |  | NC(=O)c1csc([C@@H]2O[C@H](COP(=O)(O)OP(=O)(O)OC[C@H]3O[C@@H](n4cnc5c(N)ncnc54)[C@H](O)[C@@H]3O)[C@@H](O)[C@H]2O)n1 [TIAZOFURIN ADENINE DINUCLEOTIDE]
12 |  |  | 100 |  | NC(=O)c1csc([C@@H]2O[C@H](CO)[C@@H](O)[C@H]2O)n1 [TIAZOFURIN]
